Experimental data as given in patent US10696639B2, “Heterocyclic compounds as HIV protease inhibitors” (Merck Sharp & Dohme Corp., priority 2016, dated 2020).

Target: T1, wild-type HIV-1 protease (Human immunodeficiency virus type 1 group M subtype B, UniProt P04585)
T1 construct: Escherichia coli expressed wild-type HIV-1 protease protein; made in house; host or cells: Escherichia coli
Assay: Assay for Inhibition of Microbial Expressed HIV Protease
Format: biochemical
Conditions: E. coli expressed wild-type HIV-1 protease, peptide substrate cleavage, LC-MS readout; mean of at least two independent experiments; read-out: HIV Pr Enzyme HIV1 PR IC50
Procedure: Assay for Inhibition of Microbial Expressed HIV Protease
Inhibition of Escherichia coli expressed wild-type HIV-1 protease protein was carried out with a peptide substrate [Val-Ser-Gln-Asn-(βnaphtyl)Ala-Pro-Ile-Val]. The inhibitor compound was preincubated with HIV-1 protease enzyme in assay buffer (50 mM sodium acetate, pH 5.5, 100 mM NaCl, and 0.1% BSA) for 30 minutes at room temperature. Peptide substrate was added to […] in a total volume of 20 μL containing 20 pM HIV-1 protease (final) after which the reaction was incubated for 1 hour at 30° C. The reaction was quenched by the addition of formic acid and HIV protease inhibitor indinavir to 0.012% and 150 nM final concentrations, respectively. Product formation was determined after separation of product and substrate on a ZORBAX Eclipse XDB-C18 column (Aligent Technologies, Santa Clara, Calif., USA) connected to an API 4000™ mass spectrometer (AB Sciex, Pte. Ltd., Concord Ontario, Canada) with multiple reaction monitoring (transitions were 644.5/428.9 and 615.4/422.2 (M1/M3) for product and indinavir respectively). The extent of inhibition of the reaction was determined from the peak area of the products. Analysis of the products, independently synthesized, provided quantitation standards and confirmation of the product composition.

| SMILES | IC50 [nM] |
| --- | --- |
| COC(=O)N[C@@H](Cc1ccc(OC)cc1)C(=O)N[C@@H](C)CCCN1C(=N)N[C@](CC(C)C)(c2ccccc2)C1=O [Example 1, N-{(1S)-4-[(4R)-2-imino-4-(2-methylpropyl)-5-oxo-4-phenylimidazolidin-1-yl]-1-methylbutyl}-N-alpha-(methoxycarbonyl)-O-methyl-L-tyrosinamide] | 18 |
| N=C1NC(c2ccccc2)(c2ccccc2)C(=O)N1CCCCNC(=O)[C@@H](N)Cc1ccccc1 [Example 2, N-[4-(2-imino-5-oxo-4,4-diphenylimidazolidin-1-yl)butyl]-L-phenylalaninamide] | 11 |
| CC(=O)N[C@@H](Cc1ccccc1)C(=O)NCCCCN1C(=N)NC(c2ccccc2)(c2ccccc2)C1=O [Example 3, N-alpha-acetyl-N-[4-(2-imino-5-oxo-4,4-diphenylimidazolidin-1-yl)butyl]-L-phenylalaninamide] | 8 |
| COC(=O)N[C@@H](Cc1ccccc1)C(=O)NCCCCN1C(=N)NC(c2ccccc2)(c2ccccc2)C1=O [Example 4, N-[4-(2-imino-5-oxo-4,4-diphenylimidazolidin-1-yl)butyl]-N-alpha-(methoxycarbonyl)-L-phenylalaninamide] | 10 |
| N=C1NC(c2ccccc2)(c2ccccc2)C(=O)N1CCCCNC(=O)[C@@H](N)CCc1ccccc1 [Example 5, (2S)-2-amino-N-[4-(2-imino-5-oxo-4,4-diphenylimidazolidin-1-yl)butyl]-4-phenylbutanamide] | 6 |
| CCOC(=O)N[C@@H](Cc1ccccc1)C(=O)NCCCCN1C(=N)NC(c2ccccc2)(c2ccccc2)C1=O [Example 6, N-alpha-(ethoxycarbonyl)-N-[4-(2-imino-5-oxo-4,4-diphenylimidazolidin-1-yl)butyl]-L-phenylalaninamide] | 4 |
| COC(=O)N[C@@H](Cc1ccccc1)C(=O)N[C@@H](C)CCCN1C(=N)NC(c2ccccc2)(c2ccccc2)C1=O [Example 7, N-[(1S)-4-(2-imino-5-oxo-4,4-diphenylimidazolidin-1-yl)-1-methylbutyl]-N-alpha-(methoxycarbonyl)-L-phenylalaninamide] | 2 |
| COC(=O)N[C@@H](Cc1cccnc1)C(=O)NCCCCN1C(=N)NC(c2ccccc2)(c2ccccc2)C1=O [Example 8, methyl [(1S)-2-{[4-(2-imino-5-oxo-4,4-diphenylimidazolidin-1-yl)butyl]amino}-2-oxo-1-(pyridin-3-ylmethyl)ethyl]carbamate] | 12 |
| N=C1NC(c2ccccc2)(c2ccccc2)C(=O)N1CCCCNC(=O)[C@@H](N)Cc1cccnc1 [Example 9, N-[4-(2-imino-5-oxo-4,4-diphenylimidazolidin-1-yl)butyl]-3-pyridin-3-yl-L-alaninamide] | 31 |
| N=C1NC(c2ccccc2)(c2ccccc2)C(=O)N1CCCCNC(=O)[C@@H](N)Cc1ccncc1 [Example 10, N-[4-(2-imino-5-oxo-4,4-diphenylimidazolidin-1-yl)butyl]-3-pyridin-4-yl-L-alaninamide] | 34 |
| COC(=O)N[C@@H](Cc1ccccc1)C(=O)N[C@@H](C)CCCN1C(=N)NC(c2ccc(F)cc2)(c2ccc(F)cc2)C1=O [Example 11, N-{(1S)-4-[4,4-bis(4-fluorophenyl)-2-imino-5-oxoimidazolidin-1-yl]-1-methylbutyl}-N-alpha-(methoxycarbonyl)-L-phenylalaninamide] | 7 |
| COC(=O)N[C@@H](Cc1ccccn1)C(=O)NCCCCN1C(=N)NC(c2ccccc2)(c2ccccc2)C1=O [Example 12, methyl [(1S)-2-{[4-(2-imino-5-oxo-4,4-diphenylimidazolidin-1-yl)butyl]amino}-2-oxo-1-(pyridin-2-ylmethyl)ethyl]carbamate] | 21 |
| COC(=O)N[C@@H](Cc1ccncc1)C(=O)NCCCCN1C(=N)NC(c2ccccc2)(c2ccccc2)C1=O [Example 13, methyl [(1S)-2-{[4-(2-imino-5-oxo-4,4-diphenylimidazolidin-1-yl)butyl]amino}-2-oxo-1-(pyridin-4-ylmethyl)ethyl]carbamate] | 7 |
| N=C1NC(c2ccccc2)(c2ccccc2)C(=O)N1CCCCCNC(=O)[C@@H](N)Cc1ccccc1 [Example 14, N-[5-(2-imino-5-oxo-4,4-diphenylimidazolidin-1-yl)pentyl]-L-phenylalaninamide] | 67 |
| COC(=O)N[C@@H](Cc1ccccc1)C(=O)NCCCCCN1C(=N)NC(c2ccccc2)(c2ccccc2)C1=O [Example 15, N-[5-(2-imino-5-oxo-4,4-diphenylimidazolidin-1-yl)pentyl]-N-alpha-(methoxycarbonyl)-L-phenylalaninamide] | 98 |
| CC(C)CC1(c2ccccc2)NC(=N)N(CCCCNC(=O)[C@@H](N)Cc2ccccc2)C1=O (stereo partly drawn) [Example 16, N-{4-[2-imino-4-(2-methylpropyl)-5-oxo-4-phenylimidazolidin-1-yl]butyl}-L-phenylalaninamide] | 19 |
| COC(=O)N[C@@H](Cc1ccccc1)C(=O)NCCCCN1C(=N)NC(CC(C)C)(c2ccccc2)C1=O (stereo partly drawn) [Example 17, N-{4-[2-imino-4-(2-methylpropyl)-5-oxo-4-phenylimidazolidin-1-yl]butyl}-N-alpha-(methoxycarbonyl)-L-phenylalaninamide] | 20 |
| CC(C)CCC1(c2ccccc2)NC(=N)N(CCCCNC(=O)[C@@H](N)Cc2ccccc2)C1=O (stereo partly drawn) [Example 18, N-{4-[2-imino-4-(3-methylbutyl)-5-oxo-4-phenylimidazolidin-1-yl]butyl}-L-phenylalaninamide] | 25 |
| COC(=O)N[C@@H](Cc1ccccc1)C(=O)NCCCCN1C(=N)NC(CCC(C)C)(c2ccccc2)C1=O (stereo partly drawn) [Example 19, N-{4-[2-imino-4-(3-methylbutyl)-5-oxo-4-phenylimidazolidin-1-yl]butyl}-N-alpha-(methoxycarbonyl)-L-phenylalaninamide] | 24 |
| COC(=O)N[C@@H](Cc1ccncc1)C(=O)NCCCCCN1C(=N)NC(c2ccccc2)(c2ccccc2)C1=O [Example 20, methyl [(1S)-2-{[5-(2-imino-5-oxo-4,4-diphenylimidazolidin-1-yl)pentyl]amino}-2-oxo-1-(pyridin-4-ylmethyl)ethyl]carbamate] | 91 |
| COC(=O)N[C@@H](Cc1ccncc1)C(=O)NCCCCN1C(=N)NC(CC(C)C)(c2ccccc2)C1=O (stereo partly drawn) [Example 21, methyl [(1S)-2-({4-[2-imino-4-(2-methylpropyl)-5-oxo-4-phenylimidazolidin-1-yl]butyl}amino)-2-oxo-1-(pyridin-4-ylmethyl)ethyl]carbamate] | 46 |
| COC(=O)N[C@@H](Cc1ccncc1)C(=O)NCCCCN1C(=N)NC(CCC(C)C)(c2ccccc2)C1=O (stereo partly drawn) [Example 22, methyl [(1S)-2-({4-[2-imino-4-(3-methylbutyl)-5-oxo-4-phenylimidazolidin-1-yl]butyl}amino)-2-oxo-1-(pyridin-4-ylmethyl)ethyl]carbamate] | 60 |
| CC1(OC(=O)N[C@@H](Cc2ccccc2)C(=O)NCCCCN2C(=N)NC(c3ccccc3)(c3ccccc3)C2=O)CC1 [Example 23, N-[4-(2-imino-5-oxo-4,4-diphenylimidazolidin-1-yl)butyl]-N-alpha-{[(1-methylcyclopropyl)oxy]carbonyl}-L-phenylalaninamide] | 16 |
| N#Cc1cccc(C[C@H](N)C(=O)NCCCCN2C(=N)NC(c3ccccc3)(c3ccccc3)C2=O)c1 [Example 24, 3-cyano-N-[4-(2-imino-5-oxo-4,4-diphenylimidazolidin-1-yl)butyl]-L-phenylalaninamide] | 22 |
| COC(=O)N[C@@H](Cc1ccc(F)cc1)C(=O)NCCCCN1C(=N)NC(c2ccccc2)(c2ccccc2)C1=O [Example 25, 4-fluoro-N-[4-(2-imino-5-oxo-4,4-diphenylimidazolidin-1-yl)butyl]-N-alpha-(methoxycarbonyl)-L-phenylalaninamide] | 17 |
| CC(C)OC(=O)N[C@@H](Cc1ccccc1)C(=O)NCCCCN1C(=N)NC(c2ccccc2)(c2ccccc2)C1=O [Example 26, N-[4-(2-imino-5-oxo-4,4-diphenylimidazolidin-1-yl)butyl]-N-alpha-[(1-methylethoxy)carbonyl]-L-phenylalaninamide] | 27 |
| COC(=O)N[C@@H](Cc1ccc(F)cc1)C(=O)N[C@@H](C)CCCN1C(=N)N[C@](CC(C)C)(c2ccccc2)C1=O [Example 27, 4-fluoro-N-{(1S)-4-[(4R)-2-imino-4-(2-methylpropyl)-5-oxo-4-phenylimidazolidin-1-yl]-1-methylbutyl}-N-alpha-(methoxycarbonyl)-L-phenylalaninamide] | 27 |
| COC(=O)N[C@@H](Cc1ccccc1)C(=O)N[C@@H](C)CCCN1C(=N)N[C@](CC(C)C)(c2ccccc2)C1=O [Example 28, N-{(1S)-4-[(4R)-2-imino-4-(2-methylpropyl)-5-oxo-4-phenylimidazolidin-1-yl]-1-methylbutyl}-N-alpha-(methoxycarbonyl)-L-phenylalaninamide] | 9 |
| COC(=O)N[C@@H](Cc1ccccc1)C(=O)NC(CCCN1C(=N)N[C@](CC(C)C)(c2ccccc2)C1=O)CC1CC1 (stereo partly drawn) [Example 29, N-{1-(cyclopropylmethyl)-4-[(4R)-2-imino-4-(2-methylpropyl)-5-oxo-4-phenylimidazolidin-1-yl]butyl}-N-alpha-(methoxycarbonyl)-L-phenylalaninamide] | 33 |
